Laboratory results published in ChEMBL document CHEMBL3244272, “Folate antagonists. 15. 2,3-Diamino-6-(2-naphthylsulfonyl)quinazoline and related 2,4-diamino-6-[(phenyl and naphthyl)sulfinyl and sulfonyl]quinazolines, a potent new class of antimetabolites with phenomenal antimalarial activity” (J Med Chem, 1979).
Converted amounts (≈) assume the structure as drawn.

Legend:
Type in all cases: functional
[1] = test system: Mycobacterium tuberculosis; assay: Antibacterial activity against Mycobacterium tuberculosis H37Rv assessed as growth inhibition
[2] = test system: Escherichia coli; assay: Antibacterial activity against Escherichia coli Vogel assessed as growth inhibition
[3] = test system: Pseudomonas aeruginosa; assay: Antibacterial activity against Pseudomonas aeruginosa 28 assessed as growth inhibition
[4] = test system: Shigella sonnei; assay: Antibacterial activity against Shigella sonnei C-10 assessed as growth inhibition
[5] = test system: Staphylococcus aureus; assay: Antibacterial activity against Staphylococcus aureus UC-76 assessed as growth inhibition
[6] = test system: Plasmodium berghei; assay: Antimalarial activity against trophozoite-induced Plasmodium berghei infected in mouse assessed as change in mean survival time at 40 mg/kg, sc single dose after 72 hrs of infection; conditions: route subcutaneous
[7] = test system: Plasmodium berghei; assay: Antimalarial activity against trophozoite-induced Plasmodium berghei infected in sc dosed mouse assessed as minimum curative dose
[8] = test system: Enterococcus faecalis; assay: Antibacterial activity against Streptococcus faecalis MGH-2 assessed as growth inhibition
[9] = test system: Staphylococcus aureus; assay: Antibacterial activity against Staphylococcus aureus S18713 assessed as growth inhibition
[10] = test system: Plasmodium berghei; assay: Antimalarial activity against trophozoite-induced Plasmodium berghei infected in mouse assessed as change in mean survival time at 20 mg/kg, sc single dose after 72 hrs of infection; conditions: route subcutaneous
[11] = test system: Plasmodium berghei; assay: Antimalarial activity against trophozoite-induced Plasmodium berghei infected in mouse assessed as change in mean survival time at 80 mg/kg, sc single dose after 72 hrs of infection; conditions: route subcutaneous
[12] = test system: Plasmodium berghei; assay: Antimalarial activity against trophozoite-induced Plasmodium berghei infected in mouse assessed as change in mean survival time at 10 mg/kg, sc single dose after 72 hrs of infection; conditions: route subcutaneous
[13] = test system: Plasmodium berghei; assay: Antimalarial activity against trophozoite-induced Plasmodium berghei infected in mouse assessed as change in mean survival time at 2.5 mg/kg, sc single dose after 72 hrs of infection; conditions: route subcutaneous
[14] = test system: Plasmodium berghei; assay: Antimalarial activity against trophozoite-induced Plasmodium berghei infected in mouse assessed as change in mean survival time at 1.25 mg/kg, sc single dose after 72 hrs of infection; conditions: route subcutaneous
[15] = test system: Plasmodium berghei; assay: Antimalarial activity against trophozoite-induced Plasmodium berghei infected in mouse assessed as change in mean survival time at 5 mg/kg, sc single dose after 72 hrs of infection; conditions: route subcutaneous
[16] = test system: Plasmodium gallinaceum; assay: Antimalarial activity against cycloguanil-resistant Plasmodium gallinaceum infected in mouse assessed as dose required to suppress parasitemia by 90% compound treated through gavage for 3 days relative to parent strain
[17] = test system: Plasmodium gallinaceum; assay: Antimalarial activity against cycloguanil-resistant Plasmodium gallinaceum infected in mouse assessed as dose required to suppress parasitemia by 90% compound treated through gavage for 3 days
[18] = test system: Plasmodium berghei; assay: Antimalarial activity against trophozoite-induced Plasmodium berghei infected in mouse assessed as change in mean survival time at 320 mg/kg, sc single dose after 72 hrs of infection; conditions: route subcutaneous
[19] = test system: Plasmodium falciparum; assay: Antimalarial activity against chloroquine-resistant, pyrimethamine-sensitive Plasmodium falciparum Vietnam Oak Knoll in Aotus monkey assessed as dose required to >50% cures compound treated for 7 days
[20] = test system: Plasmodium falciparum; assay: Antimalarial activity against chloroquine-sensitive, pyrimethamine-resistant Plasmodium falciparum Malayan Camp CH/Q infected in Aotus monkey assessed as dose required to >50% cures compound treated for 7 days
[21] = test system: Plasmodium berghei; assay: Antimalarial activity against trophozoite-induced Plasmodium berghei infected in mouse assessed as change in mean survival time at 160 mg/kg, sc single dose after 72 hrs of infection; conditions: route subcutaneous

SMILES | MIC [1] [µg/mL] | MIC [2] [µg/mL] | MIC [3] [µg/mL] | MIC [4] [µg/mL] | MIC [5] [µg/mL] | MST [6] [days] | MCD [7] [mg/kg] | MIC [8] [µg/mL] | MIC [9] [µg/mL] | MST [10] [days] | MST [11] [days] | MST [12] [days] | MST [13] [days] | MST [15] [days] | other results
Nc1nc(N)c2c(Cl)c([S+]([O-])c3ccc(F)cc3)ccc2n1 (stereo unspecified) | 2.5 (≈ 7.42 µM) | < 0.25 | > 25 | < 0.25 | < 0.25 | 20.9 | 40 | < 0.25 | 1 (≈ 2.97 µM) | 4.1 | 27.9 |  |  |  | 
COc1cc(Cc2cnc(N)nc2N)cc(OC)c1OC [TRIMETHOPRIM] | > 25 | < 0.25 | > 25 | < 0.25 | < 0.25 |  |  | < 0.25 | < 0.25 |  |  |  |  |  | 
Nc1nc(N)c2c(Cl)c([S+]([O-])c3ccccc3Cl)ccc2n1 (stereo unspecified) | > 25 | > 25 | > 25 | > 25 | 2 (≈ 5.66 µM) |  | 40 | < 0.25 | > 25 | 8.6 |  |  |  |  | 
Nc1nc(N)c2c(Cl)c(S(=O)(=O)c3ccc(F)cc3)ccc2n1 | > 25 | 10 (≈ 28.3 µM) | > 25 | > 25 | 2 (≈ 5.67 µM) | 13.4 | 40 | < 0.25 | > 25 | 9.7 | 26.9 | 9.3 | 0.5 | 4.1 | MST [14]: 0.5 days
Nc1nc(N)c2cc(Sc3ccc(Br)cc3)ccc2n1 |  |  |  |  |  |  |  |  |  |  |  |  |  |  | fold change (FC) [16]: <4; Activity [17]: <1.6 mg/kg
Nc1nc(N)c2c(Cl)c([S+]([O-])c3cccc(C(F)(F)F)c3)ccc2n1 (stereo unspecified) |  |  |  |  |  |  | 40 |  |  | 0.5 | 1.1 |  |  |  | MST [18]: 1.5 days
Nc1nc(N)c2cc(S(=O)(=O)c3ccc(F)cc3)ccc2n1 |  |  |  |  |  |  | 20 |  |  |  |  | 12.9 | 6.9 | 13.6 | fold change (FC) [16]: 3; MST [14]: 4.1 days; Activity [17]: 0.6 mg/kg
Nc1nc(N)c2cc(Sc3ccc4ccccc4c3)ccc2n1 |  |  |  |  |  |  |  |  |  |  |  |  |  |  | fold change (FC) [16]: 0; Activity [17]: <1.6 mg/kg; Activity [19]: 1.56 mg/kg; Activity [20]: 3.125 mg/kg
Nc1nc(N)c2c(Cl)c(S(=O)(=O)c3ccccc3)ccc2n1 | > 25 | 2 (≈ 5.97 µM) | > 25 | 2 (≈ 5.97 µM) | 2 (≈ 5.97 µM) | 22.4 | 640 | < 0.25 | 2 (≈ 5.97 µM) | 11.9 |  |  |  |  | 
Nc1nc(N)c2cc([S+]([O-])c3cccc4ccccc34)ccc2n1 (stereo unspecified) |  | > 25 | > 25 | > 25 | > 25 | 7.9 | 80 | > 25 | > 25 | 1.9 | 13.7 | 1.1 |  |  | MST [18]: 16.4 days; MST [21]: 15.2 days
Nc1nc(N)c2cc([S+]([O-])c3cccc(-c4ccccc4)c3)ccc2n1 (stereo unspecified) |  | > 25 | > 25 | > 25 | < 0.25 | 18.9 | 40 | < 0.25 | < 0.25 | 11.1 | 22.9 | 6.7 | 1.1 | 4.1 | MST [14]: 0.5 days
CN(C)c1ccc(Sc2ccc3nc(N)nc(N)c3c2)cc1 |  |  |  |  |  |  |  |  |  |  |  |  |  |  | fold change (FC) [16]: 0; Activity [17]: 0.9 mg/kg; Activity [19]: 1.25 mg/kg; Activity [20]: 2.5 mg/kg
Nc1nc(N)c2cc(S(=O)(=O)c3ccc(Br)cc3)ccc2n1 |  | 2.5 (≈ 6.59 µM) | > 25 | > 25 | < 0.25 |  | 10 | < 0.25 | < 0.25 | 9.9 |  | 13.1 | 6.5 | 10.3 | fold change (FC) [16]: <3; Activity [17]: <1.6 mg/kg
Nc1nc(N)c2cc(S(=O)(=O)c3ccccc3)ccc2n1 |  |  |  |  |  | 12.1 | 160 |  |  | 7.7 | 12.6 | 5.1 | 0.3 | 0.3 | 
Nc1nc(N)c2c(Cl)c([S+]([O-])c3ccccc3)ccc2n1 (stereo unspecified) |  |  |  |  |  | 12.9 | 640 |  |  | 8.5 | 17.9 |  |  |  | 
Nc1nc(N)c2cc([S+]([O-])c3ccc4ccccc4c3)ccc2n1 (stereo unspecified) |  | < 0.25 | > 25 | 2.5 (≈ 7.48 µM) | < 0.25 |  | 20 | < 0.25 | < 0.25 |  |  | 31.9 | 10.9 | 14.2 | fold change (FC) [16]: 0; MST [14]: 6.7 days; Activity [17]: 0.1 mg/kg; Activity [19]: 0.39 mg/kg; Activity [20]: 0.78 mg/kg
Nc1nc(N)c2cc(S(=O)(=O)c3cccc(C(F)(F)F)c3)ccc2n1 | 25 (≈ 67.9 µM) | > 25 | > 25 | > 25 | 1.5 (≈ 4.07 µM) |  | 40 | 0.25 (≈ 0.679 µM) | 2 (≈ 5.43 µM) | 13.9 |  | 11.6 | 1.5 | 7.7 | MST [14]: 0.5 days; Activity [19]: 0.39 mg/kg; Activity [20]: 1.56 mg/kg
Nc1nc(N)c2c(Cl)c([S+]([O-])c3ccc4ccccc4c3)ccc2n1 (stereo unspecified) | > 25 | > 25 | > 25 | > 25 | > 25 | 23.9 | 5 | < 0.25 | > 25 | 9.3 |  |  |  |  | 
Nc1nc(N)c2c(Cl)c(S(=O)(=O)c3cccc(C(F)(F)F)c3)ccc2n1 | > 25 | > 25 | > 25 | > 25 | > 25 | 0.7 | 40 | < 0.25 | > 25 | 0.7 | 1.1 | 0.5 |  |  | MST [18]: 4.7 days; MST [21]: 3.7 days
Nc1nc(N)c2cc(Sc3cccc(C(F)(F)F)c3)ccc2n1 [WR-159412] |  |  |  |  |  |  |  |  |  |  |  |  |  |  | Activity [19]: 0.098 mg/kg; Activity [20]: 0.39 mg/kg
Nc1nc(N)c2cc(S(=O)(=O)c3cccc4ccccc34)ccc2n1 | > 25 | > 25 | > 25 | > 25 | > 25 | 3.5 | 80 | > 25 | > 25 | 2.9 | 5.5 | 0.7 |  |  | MST [18]: 14.4 days; MST [21]: 14.3 days
Cc1cc(S(=O)(=O)c2ccc3nc(N)nc(N)c3c2)ccc1Br |  |  |  |  |  | 5.9 | 80 |  |  | 1.5 | 10.5 | 0.5 |  |  | MST [18]: 18.9 days; MST [21]: 17.4 days
Nc1nc(N)c2c(Cl)c(S(=O)(=O)c3ccc4ccccc4c3)ccc2n1 | > 25 | > 25 | > 25 | > 25 | > 25 | 4.7 | 5 | < 0.25 | > 25 | 0.7 | 7.1 |  |  |  | MST [18]: 13.3 days; MST [21]: 11.5 days
Nc1nc(N)c2cc([S+]([O-])c3ccc(Cl)c(Cl)c3)ccc2n1 (stereo unspecified) |  | > 25 | > 25 | > 25 | > 25 | 21.9 | 10 | < 0.25 | > 25 | 15.9 |  | 8.7 | 4.1 | 7.9 | MST [14]: 1.1 days
Nc1nc(N)c2cc([S+]([O-])c3ccc(Br)cc3)ccc2n1 (stereo unspecified) |  | 2.5 (≈ 6.88 µM) | > 25 | > 25 | < 0.25 | 20.9 | 10 | < 0.25 | < 0.25 | 13.6 |  | 10.1 | 3.3 | 6.7 | 
Nc1nc(N)c2cc(Sc3ccc(Cl)c(Cl)c3)ccc2n1 |  |  |  |  |  |  |  |  |  |  |  |  |  |  | fold change (FC) [16]: 0; Activity [17]: <0.4 mg/kg
